Results published in patent US20230143604A1, “QW DOSING OF GIP RECEPTOR AGONIST PEPTIDE COMPOUNDS AND USES THEREOF” (TAKEDA PHARMACEUTICAL COMPANY LIMITED, priority 2020, published 2023).
Starred links: 1 amine or outer side, 2 acyl side, 3 side chain; linkers in the order of their positions; H or OH if unused. Positions of bridges follow the written chain, without caps; N, C: chain ends. Non-standard residues stand in square brackets, D forms with d. Residues, ends and D or L forms follow the SMILES beside them. Groups on a side chain read outwards from the residue. Chains are numbered I, II in the order given. *: point of attachment. C18 diacid = O=C(O)CCCCCCCCCCCCCCCCC(=O)*; C17 diacid = O=C(O)CCCCCCCCCCCCCCCC(=O)*; γGlu = O=C(O)[C@H](CCC(=O)[*:2])N[*:1]; NMeY = CN[C@@H](Cc1ccc(O)cc1)C(=O)O; AEEA = NCCOCCOCC(=O)O; Aib = CC(C)(N)C(=O)O

Experiment: physchem
Outline: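 3 mg of peptide treated with 100 μL portions of 200 mM phosphate buffer pH 7.4, sonicating/vortexing up to 1 min, with further buffer added until fully dissolved. Solubility then quantified by HPLC.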

**Q.** With `CC[C@H](C)[C@H](NC(=O)[C@H](Cc1ccccc1)NC(=O)[C@@H](NC(=O)CNC(=O)[C@H](CCC(=O)O)NC(=O)C(C)(C)NC(=O)[C@@H](N)Cc1ccc(O)cc1)[C@@H](C)O)C(=O)N[C@@H](CO)C(=O)N[C@@H](CC(=O)O)C(=O)N[C@@H](Cc1ccc(O)cc1)C(=O)N[C@@H](CO)C(=O)N[C@H](C(=O)NC(C)(C)C(=O)N[C@@H](CCCCNC(=O)CNC(=O)CNC(=O)CNC(=O)CNC(=O)CNC(=O)CCCCCCCCCCCCCCCCC(=O)O)C(=O)N[C@@H](CC(=O)O)C(=O)N[C@@H](CO)C(=O)N[C@@H](C)C(=O)N[C@@H](C)C(=O)N[C@@H](CCC(N)=O)C(=O)NC(C)(C)C(=O)N[C@@H](CC(=O)O)C(=O)N[C@@H](Cc1ccccc1)C(=O)N[C@H](C(=O)N[C@@H](CC(N)=O)C(=O)N[C@@H](Cc1c[nH]c2ccccc12)C(=O)N[C@@H](CC(C)C)C(=O)N[C@@H](CC(C)C)C(=O)N[C@@H](C)C(=O)N[C@@H](CCC(N)=O)C(=O)N[C@@H](CCCNC(=N)N)C(=O)NCC(=O)O)C(C)C)[C@@H](C)CC` [Compound 151] as the compound, how does the solubility (pH 7.4) read?
**A.** ≥ 15 mg/mL

**Q.** And the solubility (pH 7.4, aqueous buffer)?
**A.** ≥ 30 mg/mL

**Q.** Which solubility (pH 7.4) does the source give for `CC[C@H](C)[C@H](NC(=O)[C@H](Cc1ccccc1)NC(=O)[C@@H](NC(=O)CNC(=O)[C@H](CCC(=O)O)NC(=O)C(C)(C)NC(=O)[C@H](Cc1ccc(O)cc1)NC)[C@@H](C)O)C(=O)N[C@@H](CO)C(=O)N[C@@H](CC(=O)O)C(=O)N[C@@H](Cc1ccc(O)cc1)C(=O)N[C@@H](CO)C(=O)N[C@H](C(=O)NC(C)(C)C(=O)N[C@@H](CC(C)C)C(=O)N[C@@H](CC(=O)O)C(=O)N[C@@H](CCCNC(=N)N)C(=O)NC(C)(C)C(=O)N[C@@H](CCCCNC(=O)COCCOCCNC(=O)COCCOCCNC(=O)CC[C@H](NC(=O)CC[C@H](NC(=O)CCCCCCCCCCCCCCCCC(=O)O)C(=O)O)C(=O)O)C(=O)N[C@@H](CCC(N)=O)C(=O)NC(C)(C)C(=O)N[C@@H](CC(=O)O)C(=O)N[C@@H](Cc1ccccc1)C(=O)N[C@H](C(=O)N[C@@H](CC(N)=O)C(=O)N[C@@H](Cc1c[nH]c2ccccc12)C(=O)N[C@@H](CC(C)C)C(=O)N[C@@H](CC(C)C)C(=O)N[C@@H](C)C(=O)N[C@@H](CCC(N)=O)C(=O)N[C@@H](CO)C(=O)N1CCC[C@H]1C(=O)NCC(=O)O)C(C)C)[C@@H](C)CC` [Compound 87] (H-[NMeY][Aib]EGTFISDYSI[Aib]LDR[Aib]K([AEEA-AEEA-γGlu-γGlu-C18 diacid])Q[Aib]DFVNWLLAQSPG-OH) here?
**A.** ≥ 15 mg/mL

**Q.** What about the solubility (pH 7.4, aqueous buffer) of the same compound?
**A.** ≥ 30 mg/mL

**Q.** What does the source list for `CC[C@H](C)[C@H](NC(=O)[C@H](CO)NC(=O)[C@H](Cc1ccc(O)cc1)NC(=O)[C@H](CC(=O)O)NC(=O)[C@H](CO)NC(=O)[C@@H](NC(=O)[C@H](Cc1ccccc1)NC(=O)[C@@H](NC(=O)CNC(=O)[C@H](CCC(=O)O)NC(=O)C(C)(C)NC(=O)[C@H](Cc1ccc(O)cc1)NC)[C@@H](C)O)[C@@H](C)CC)C(=O)N[C@@H](C)C(=O)N[C@@H](CC(C)C)C(=O)N[C@@H](CC(=O)O)C(=O)N[C@@H](CCCNC(=N)N)C(=O)NC(C)(C)C(=O)N[C@@H](C)C(=O)N[C@@H](CCC(N)=O)C(=O)NC(C)(C)C(=O)N[C@@H](CCCCNC(=O)COCCOCCNC(=O)COCCOCCNC(=O)CC[C@H](NC(=O)CC[C@H](NC(=O)CCCCCCCCCCCCCCCC(=O)O)C(=O)O)C(=O)O)C(=O)N[C@@H](Cc1ccccc1)C(=O)N[C@H](C(=O)N[C@@H](CC(N)=O)C(=O)N[C@@H](Cc1c[nH]c2ccccc12)C(=O)N[C@@H](CC(C)C)C(=O)N[C@@H](CC(C)C)C(=O)N[C@@H](C)C(=O)N[C@@H](CCC(N)=O)C(=O)N[C@@H](CCCNC(=N)N)C(=O)O)C(C)C` [Compound 9] (H-[NMeY][Aib]EGTFISDYSIALDR[Aib]AQ[Aib]K([AEEA-AEEA-γGlu-γGlu-C17 diacid])FVNWLLAQR-OH)?
**A.** solubility (pH 7.4): ≥ 15 mg/mL; solubility (pH 7.4, aqueous buffer): ≥ 30 mg/mL

**Q.** What does the source list for `CC[C@H](C)[C@H](NC(=O)[C@H](CO)NC(=O)[C@H](Cc1ccc(O)cc1)NC(=O)[C@H](CC(=O)O)NC(=O)[C@H](CO)NC(=O)[C@@H](NC(=O)[C@H](Cc1ccccc1)NC(=O)[C@@H](NC(=O)CNC(=O)[C@H](CCC(=O)O)NC(=O)C(C)(C)NC(=O)[C@H](Cc1ccc(O)cc1)NC)[C@@H](C)O)[C@@H](C)CC)C(=O)N[C@@H](C)C(=O)N[C@@H](CCCCNC(=O)CNC(=O)CNC(=O)CNC(=O)CNC(=O)CNC(=O)CCCCCCCCCCCCCCCCC(=O)O)C(=O)N[C@@H](CC(=O)O)C(=O)N[C@@H](CCCNC(=N)N)C(=O)NC(C)(C)C(=O)N[C@@H](C)C(=O)N[C@@H](CCC(N)=O)C(=O)NC(C)(C)C(=O)N[C@@H](CC(=O)O)C(=O)N[C@@H](Cc1ccccc1)C(=O)N[C@H](C(=O)N[C@@H](CCC(=O)O)C(=O)N[C@@H](Cc1c[nH]c2ccccc12)C(=O)N[C@@H](CC(C)C)C(=O)N[C@@H](CC(C)C)C(=O)N[C@@H](C)C(=O)N[C@@H](CCC(N)=O)C(=O)N[C@@H](CO)C(=O)N1CCC[C@H]1C(=O)NCC(=O)O)C(C)C` [Compound 118]?
**A.** solubility (pH 7.4): ≥ 15 mg/mL; solubility (pH 7.4, aqueous buffer): ≥ 30 mg/mL

**Q.** Which results are given for `CC[C@H](C)[C@H](NC(=O)[C@H](CCCCN)NC(=O)[C@H](CC(=O)O)NC(=O)[C@H](CC(C)C)NC(=O)[C@H](C)NC(=O)[C@@H](NC(=O)[C@H](CO)NC(=O)[C@H](Cc1ccc(O)cc1)NC(=O)[C@H](CC(=O)O)NC(=O)[C@H](CO)NC(=O)[C@@H](NC(=O)[C@H](Cc1ccccc1)NC(=O)[C@@H](NC(=O)CNC(=O)[C@H](CCC(=O)O)NC(=O)C(C)(C)NC(=O)[C@H](Cc1ccc(O)cc1)NC)[C@@H](C)O)[C@@H](C)CC)[C@@H](C)CC)C(=O)N[C@@H](C)C(=O)N[C@@H](CCC(N)=O)C(=O)NC(C)(C)C(=O)N[C@@H](CCCCNC(=O)COCCOCCNC(=O)COCCOCCNC(=O)CC[C@H](NC(=O)CC[C@H](NC(=O)CCCCCCCCCCCCCCCCC(=O)O)C(=O)O)C(=O)O)C(=O)N[C@@H](Cc1ccccc1)C(=O)N[C@H](C(=O)N[C@@H](CCC(=O)O)C(=O)N[C@@H](Cc1c[nH]c2ccccc12)C(=O)N[C@@H](CC(C)C)C(=O)N[C@@H](CC(C)C)C(=O)N[C@@H](C)C(=O)N[C@@H](CCC(N)=O)C(=O)N[C@@H](CCCNC(=N)N)C(=O)NCC(=O)O)C(C)C` [Compound 173] (H-[NMeY][Aib]EGTFISDYSIALDKIAQ[Aib]K([AEEA-AEEA-γGlu-γGlu-C18 diacid])FVEWLLAQRG-OH)?
**A.** solubility (pH 7.4): ≥ 15 mg/mL; solubility (pH 7.4, aqueous buffer): ≥ 30 mg/mL

**Q.** With `CC[C@H](C)[C@H](NC(=O)[C@H](CO)NC(=O)[C@H](Cc1ccc(O)cc1)NC(=O)[C@H](CC(=O)O)NC(=O)[C@H](CO)NC(=O)[C@@H](NC(=O)[C@H](Cc1ccccc1)NC(=O)[C@@H](NC(=O)CNC(=O)[C@H](CCC(=O)O)NC(=O)C(C)(C)NC(=O)[C@H](Cc1ccc(O)cc1)NC)[C@@H](C)O)[C@@H](C)CC)C(=O)N[C@@H](C)C(=O)N[C@@H](CCCCNC(=O)CNC(=O)CNC(=O)[C@@H]1CCCN1C(=O)[C@H](C)NC(=O)[C@@H]1CCCN1C(=O)[C@H](C)NC(=O)[C@@H]1CCCN1C(=O)CCCCCCCCCCCCCCCCC(=O)O)C(=O)N[C@@H](CC(=O)O)C(=O)N[C@@H](CCCNC(=N)N)C(=O)NC(C)(C)C(=O)N[C@@H](C)C(=O)N[C@@H](CCC(N)=O)C(=O)NC(C)(C)C(=O)N[C@@H](CC(=O)O)C(=O)N[C@@H](Cc1ccccc1)C(=O)N[C@H](C(=O)N[C@@H](CC(N)=O)C(=O)N[C@@H](Cc1c[nH]c2ccccc12)C(=O)N[C@@H](CC(C)C)C(=O)N[C@@H](CC(C)C)C(=O)N[C@@H](C)C(=O)N[C@@H](CCC(N)=O)C(=O)N[C@@H](CCCCN)C(=O)NCC(=O)O)C(C)C` [Compound 289] (I: H-[NMeY][Aib]EGTFISDYSIAKDR[Aib]AQ[Aib]DFVNWLLAQKG-OH / II: {C18 diacid}-PAPAPGG; amide I:14-II:C) as the compound, how does the solubility (pH 7.4, aqueous buffer) read?
**A.** ≥ 10 mg/mL

**Q.** With `CC[C@H](C)[C@H](NC(=O)[C@H](CO)NC(=O)[C@H](Cc1ccc(O)cc1)NC(=O)[C@H](CC(=O)O)NC(=O)[C@H](CO)NC(=O)[C@@H](NC(=O)[C@H](Cc1ccccc1)NC(=O)[C@@H](NC(=O)CNC(=O)[C@H](CCC(=O)O)NC(=O)C(C)(C)NC(=O)[C@H](Cc1ccc(O)cc1)NC)[C@@H](C)O)[C@@H](C)CC)C(=O)N[C@@H](C)C(=O)N[C@@H](CCCCNC(=O)COCCOCCNC(=O)COCCOCCNC(=O)CC[C@H](NC(=O)CCCCCCCCCCCCCCCCC(=O)O)C(=O)O)C(=O)N[C@@H](CC(=O)O)C(=O)N[C@@H](CCCNC(=N)N)C(=O)NC(C)(C)C(=O)N[C@@H](C)C(=O)N[C@@H](CCC(N)=O)C(=O)NC(C)(C)C(=O)N[C@@H](CC(N)=O)C(=O)N[C@@H](Cc1ccccc1)C(=O)N[C@H](C(=O)N[C@@H](CC(N)=O)C(=O)N[C@@H](Cc1c[nH]c2ccccc12)C(=O)N[C@@H](CC(C)C)C(=O)N[C@@H](CC(C)C)C(=O)N[C@@H](C)C(=O)N[C@@H](CCC(N)=O)C(=O)N[C@@H](CCCNC(=N)N)C(N)=O)C(C)C` [Compound 254] (H-[NMeY][Aib]EGTFISDYSIAK([AEEA-AEEA-γGlu-C18 diacid])DR[Aib]AQ[Aib]NFVNWLLAQR-NH2) as the compound, how does the solubility (pH 7.4, aqueous buffer) read?
**A.** ≥ 7.2 mg/mL

**Q.** What does the source list for `CC[C@H](C)[C@H](NC(=O)[C@H](Cc1ccccc1)NC(=O)[C@@H](NC(=O)CNC(=O)[C@H](CCC(=O)O)NC(=O)C(C)(C)NC(=O)[C@H](Cc1ccc(O)cc1)NC)[C@@H](C)O)C(=O)N[C@@H](CO)C(=O)N[C@@H](CC(=O)O)C(=O)N[C@@H](Cc1ccc(O)cc1)C(=O)N[C@@H](CO)C(=O)N[C@H](C(=O)NC(C)(C)C(=O)N[C@@H](CC(C)C)C(=O)N[C@@H](CC(=O)O)C(=O)N[C@@H](CCCNC(=N)N)C(=O)NC(C)(C)C(=O)N[C@@H](CCCCNC(=O)COCCOCCNC(=O)COCCOCCNC(=O)CC[C@H](NC(=O)CC[C@H](NC(=O)CCCCCCCCCCCCCCCCC(=O)O)C(=O)O)C(=O)O)C(=O)N[C@@H](CCC(N)=O)C(=O)NC(C)(C)C(=O)N[C@@H](CC(N)=O)C(=O)N[C@@H](Cc1ccccc1)C(=O)N[C@H](C(=O)N[C@@H](CC(N)=O)C(=O)N[C@@H](Cc1c[nH]c2ccccc12)C(=O)N[C@@H](CC(C)C)C(=O)N[C@@H](CC(C)C)C(=O)N[C@@H](C)C(=O)N[C@@H](CCC(N)=O)C(=O)N[C@@H](CO)C(=O)N1CCC[C@H]1C(=O)N[C@@H](CO)C(=O)N[C@@H](CO)C(=O)NCC(=O)N[C@@H](C)C(=O)N1CCC[C@H]1C(=O)N1CCC[C@H]1C(=O)N1CCC[C@H]1C(=O)N[C@@H](CO)C(N)=O)C(C)C)[C@@H](C)CC` [Compound 100] (H-[NMeY][Aib]EGTFISDYSI[Aib]LDR[Aib]K([AEEA-AEEA-γGlu-γGlu-C18 diacid])Q[Aib]NFVNWLLAQSPSSGAPPPS-NH2)?
**A.** solubility (pH 7.4, aqueous buffer, pH 7.4 Phosphate Buffer - Solubility, 200 mM Phosphate buffer pH 7.4): ≥ 60 mg/mL; solubility (pH 7.4, solubility in phosphate buffer at pH 7.4, 200 mM phosphate buffer pH 7.4): ≥ 15 mg/mL
